From US20080176936A1, “Classes of Compounds that Interact with Integrins” (priority 2005, published 2008)

Columns and labels:
[1] = molecular target: T1, αllbβ3 integrin (Homo sapiens, UniProt P05106+P08514); test: ELISA: inhibition of binding of αllbβ3 integrin membrane preparation to coated extracellular matrix protein; details: human platelet membrane preparation
T1 construct: Human platelet membrane preparations were used as a source of αllbβ3 integrin; from tissue; host or cells: human platelets (membrane preparation)
T1 sequence (P08514 32-887 limits assumed): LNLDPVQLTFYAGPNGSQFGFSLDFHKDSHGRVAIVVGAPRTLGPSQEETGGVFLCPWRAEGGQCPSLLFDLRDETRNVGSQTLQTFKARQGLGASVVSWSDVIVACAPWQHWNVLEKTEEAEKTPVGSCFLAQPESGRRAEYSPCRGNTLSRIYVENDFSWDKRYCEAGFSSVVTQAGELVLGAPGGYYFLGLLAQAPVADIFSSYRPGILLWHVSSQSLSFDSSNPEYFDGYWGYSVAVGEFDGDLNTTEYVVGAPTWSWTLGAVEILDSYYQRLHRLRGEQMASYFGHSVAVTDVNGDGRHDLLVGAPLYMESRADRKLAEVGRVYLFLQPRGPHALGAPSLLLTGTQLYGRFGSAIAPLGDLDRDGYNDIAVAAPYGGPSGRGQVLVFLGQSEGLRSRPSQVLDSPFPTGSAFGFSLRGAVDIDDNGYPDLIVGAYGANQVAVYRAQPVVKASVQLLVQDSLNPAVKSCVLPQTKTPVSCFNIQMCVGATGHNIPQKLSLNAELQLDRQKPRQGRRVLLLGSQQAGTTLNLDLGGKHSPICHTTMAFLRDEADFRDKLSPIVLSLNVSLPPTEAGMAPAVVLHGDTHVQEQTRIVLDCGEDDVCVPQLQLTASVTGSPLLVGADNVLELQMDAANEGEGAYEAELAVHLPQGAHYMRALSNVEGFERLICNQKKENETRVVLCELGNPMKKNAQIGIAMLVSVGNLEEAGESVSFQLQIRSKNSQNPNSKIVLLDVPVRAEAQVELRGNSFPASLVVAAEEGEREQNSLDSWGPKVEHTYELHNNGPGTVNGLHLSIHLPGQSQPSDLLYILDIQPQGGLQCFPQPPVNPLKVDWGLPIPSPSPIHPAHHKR
T1 sequence (P08514 891-1039 partner limits assumed): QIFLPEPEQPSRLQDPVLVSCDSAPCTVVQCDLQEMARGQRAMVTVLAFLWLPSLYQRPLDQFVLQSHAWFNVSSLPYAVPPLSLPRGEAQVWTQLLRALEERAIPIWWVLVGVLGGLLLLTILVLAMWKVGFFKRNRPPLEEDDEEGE
T1 sequence (P05106 27-788): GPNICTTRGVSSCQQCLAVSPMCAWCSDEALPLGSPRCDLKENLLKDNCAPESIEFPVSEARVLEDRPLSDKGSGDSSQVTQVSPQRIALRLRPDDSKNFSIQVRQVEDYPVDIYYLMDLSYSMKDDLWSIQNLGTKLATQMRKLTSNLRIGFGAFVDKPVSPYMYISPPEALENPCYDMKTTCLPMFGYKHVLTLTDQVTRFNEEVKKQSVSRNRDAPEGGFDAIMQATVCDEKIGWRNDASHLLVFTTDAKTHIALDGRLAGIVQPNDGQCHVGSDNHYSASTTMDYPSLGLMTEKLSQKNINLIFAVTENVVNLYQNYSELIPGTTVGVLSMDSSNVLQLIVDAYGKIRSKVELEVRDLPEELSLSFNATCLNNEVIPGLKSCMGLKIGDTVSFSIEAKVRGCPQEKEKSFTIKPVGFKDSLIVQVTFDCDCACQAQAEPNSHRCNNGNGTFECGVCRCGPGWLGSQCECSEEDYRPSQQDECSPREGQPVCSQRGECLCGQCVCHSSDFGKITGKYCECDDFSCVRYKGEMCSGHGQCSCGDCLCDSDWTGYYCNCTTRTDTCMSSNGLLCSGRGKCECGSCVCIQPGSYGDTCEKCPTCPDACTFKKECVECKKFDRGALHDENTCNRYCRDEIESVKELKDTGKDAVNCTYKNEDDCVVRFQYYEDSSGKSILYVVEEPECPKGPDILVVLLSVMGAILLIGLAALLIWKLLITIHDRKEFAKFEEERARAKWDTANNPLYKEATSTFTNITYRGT
Protocol: (§1) An ELISA assay based on the published method of Bethert et al., 2000, J Biol Chem 275, 33308-23, was employed.
(§2) Briefly, appropriate microtitre plates were coated with either Fibrinogen or Vitronectin (10 μg/well). These extracellular matrix proteins contain the RGD amino acid sequence that is recognized by αllbβ3 integrin. Human platelet membrane preparations were used as a source of αllbβ3 integrin and the cell line WM-115 was used as a source of αVβ3 integrin. Inhibition of the binding of αllbβ3 integrin containing membrane preparations to the extracellular matrix protein was determined by pre-incubating the platelet membrane preparation with test or control compounds. The binding of the αllbβ3 integrin containing membrane was the quantitated by using a rabbit anti-integrinβ3 antibody, a horse radish peroxidase coupled second antibody and a standard colorimetric detection system.

[2] = molecular target: T2, αVβ3 integrin (Homo sapiens, UniProt P05106+P06756); test: ELISA: inhibition of binding of αVβ3 integrin (source WM-115 cell line) to coated extracellular matrix protein; details: WM-115 cell line as integrin source
T2 construct: the cell line WM-115 was used as a source of αVβ3 integrin; endogenous in cells; host or cells: WM-115 cell line
T2 sequence (P06756 31-889 limits assumed): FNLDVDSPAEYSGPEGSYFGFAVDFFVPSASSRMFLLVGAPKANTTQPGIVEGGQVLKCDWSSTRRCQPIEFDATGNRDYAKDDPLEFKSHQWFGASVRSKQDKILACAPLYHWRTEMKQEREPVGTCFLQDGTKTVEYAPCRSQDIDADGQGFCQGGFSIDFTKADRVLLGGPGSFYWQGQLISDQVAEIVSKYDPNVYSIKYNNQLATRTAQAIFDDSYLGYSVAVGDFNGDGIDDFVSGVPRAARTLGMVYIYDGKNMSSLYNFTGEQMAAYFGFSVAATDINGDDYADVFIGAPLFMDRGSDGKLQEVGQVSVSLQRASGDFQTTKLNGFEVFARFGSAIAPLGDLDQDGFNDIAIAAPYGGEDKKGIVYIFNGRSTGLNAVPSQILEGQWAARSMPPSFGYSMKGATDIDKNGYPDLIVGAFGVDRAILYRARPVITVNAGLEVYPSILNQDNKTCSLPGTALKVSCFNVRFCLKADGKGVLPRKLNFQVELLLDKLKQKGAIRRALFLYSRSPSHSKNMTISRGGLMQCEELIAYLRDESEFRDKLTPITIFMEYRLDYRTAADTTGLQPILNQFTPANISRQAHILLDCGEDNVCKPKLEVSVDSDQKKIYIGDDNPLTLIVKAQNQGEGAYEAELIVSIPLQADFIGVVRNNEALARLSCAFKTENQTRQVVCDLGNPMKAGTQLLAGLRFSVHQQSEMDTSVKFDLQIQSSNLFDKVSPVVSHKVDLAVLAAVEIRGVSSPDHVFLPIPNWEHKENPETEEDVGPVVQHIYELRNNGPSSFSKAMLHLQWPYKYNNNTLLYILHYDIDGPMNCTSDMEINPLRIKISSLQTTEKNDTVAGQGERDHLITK
T2 sequence (P06756 891-1048 partner limits assumed): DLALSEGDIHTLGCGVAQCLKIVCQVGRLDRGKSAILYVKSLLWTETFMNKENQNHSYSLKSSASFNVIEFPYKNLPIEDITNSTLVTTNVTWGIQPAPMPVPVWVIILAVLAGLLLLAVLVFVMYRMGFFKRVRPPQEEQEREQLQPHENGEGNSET
T2 sequence (P05106 27-788): as the sequence (P05106 27-788) above
Protocol: as §1, §2

| SMILES | INHIBITION @ 250 uM RECEPTOR allBb3 SUBSTRATE FIBRINOGEN [1] | INHIBITION 250 uM RECEPTOR allBb3 SUBSTRATE VITRONECTIN [1] | INHIBITION 250 uM RECEPTOR aVb3 SUBSTRATE FIBRINOGEN [2] |
| --- | --- | --- | --- |
| Nc1cccc(C(=O)NC2C(O)OC(COCC(=O)O)C(O)C2OCc2ccc(Br)cc2)c1 (single isomer, unassigned) [Compound 1] | + (36% to 60% inhibition at 250 micromolar) | + (36% to 60% inhibition at 250 micromolar) | − (0% to 35% inhibition at 250 micromolar) |
| COC1OC(COCc2cccc(N)c2)C(O)C(OCc2ccc(Br)cc2)C1NC(=O)c1ccc(C(=O)O)cc1 (single isomer, unassigned) [Compound 3] | + (36% to 60% inhibition at 250 micromolar) | +++ (81% to 100% inhibition at 250 micromolar) | + (36% to 60% inhibition at 250 micromolar) |
| COC1OC(COCc2cccc(N)c2)C(O)C(OCc2ccc(Br)cc2)C1NC(=O)c1ccc(C(=O)O)cc1 (single isomer, unassigned) [Compound 4] | − (0% to 35% inhibition at 250 micromolar) | − (0% to 35% inhibition at 250 micromolar) | + (36% to 60% inhibition at 250 micromolar) |
| COC1OC(COCc2ccccc2)C(O)C(OCC(=O)O)C1NC(=O)c1cccc(N)c1 (single isomer, unassigned) [Compound 5] | ++ (61% to 80% inhibition at 250 micromolar) | +++ (81% to 100% inhibition at 250 micromolar) | ++ (61% to 80% inhibition at 250 micromolar) |
| COC1OC(COCc2ccccc2)C(O)C(OCC(=O)O)C1NC(=O)c1cccc(N)c1 (single isomer, unassigned) [Compound 6] | − (0% to 35% inhibition at 250 micromolar) | +++ (81% to 100% inhibition at 250 micromolar) | +++ (81% to 100% inhibition at 250 micromolar) |
| COC1OC(COCc2ccc(Br)cc2)C(O)C(OCC(=O)O)C1NC(=O)c1cccc(N)c1 (single isomer, unassigned) [Compound 7] | + (36% to 60% inhibition at 250 micromolar) | +++ (81% to 100% inhibition at 250 micromolar) | + (36% to 60% inhibition at 250 micromolar) |
| COC1OC(COCc2ccc(Br)cc2)C(O)C(OCC(=O)O)C1NC(=O)c1cccc(N)c1 (single isomer, unassigned) [Compound 8] | + (36% to 60% inhibition at 250 micromolar) | +++ (81% to 100% inhibition at 250 micromolar) | +++ (81% to 100% inhibition at 250 micromolar) |
| COC1OC(COCc2cccc(N)c2)C(O)C(OCC(=O)O)C1NC(=O)c1ccc(Cl)cc1 (single isomer, unassigned) [Compound 9] | + (36% to 60% inhibition at 250 micromolar) | +++ (81% to 100% inhibition at 250 micromolar) | +++ (81% to 100% inhibition at 250 micromolar) |
| COC1OC(COCc2cccc(N)c2)C(O)C(OCC(=O)O)C1NC(=O)c1ccc(Cl)cc1 (single isomer, unassigned) [Compound 10] | ++ (61% to 80% inhibition at 250 micromolar) | +++ (81% to 100% inhibition at 250 micromolar) | +++ (81% to 100% inhibition at 250 micromolar) |
| COC1OC(COCc2ccccc2)C(O)C(OCc2ccc(C(=O)O)cc2)C1NC(=O)CCNC(=N)N (single isomer, unassigned) [Compound 11] | + (36% to 60% inhibition at 250 micromolar) | +++ (81% to 100% inhibition at 250 micromolar) | + (36% to 60% inhibition at 250 micromolar) |
| COC1OC(COCc2ccccc2)C(O)C(OCc2ccc(C(=O)O)cc2)C1NC(=O)CCNC(=N)N (single isomer, unassigned) [Compound 12] | ++ (61% to 80% inhibition at 250 micromolar) | ++ (61% to 80% inhibition at 250 micromolar) | − (0% to 35% inhibition at 250 micromolar) |
| COC(=O)c1ccc(COC2C(O)C(COCc3ccccc3)OC(OC)C2NC(=O)CCNC(=N)N)cc1 (single isomer, unassigned) [Compound 13] | + (36% to 60% inhibition at 250 micromolar) | +++ (81% to 100% inhibition at 250 micromolar) | − (0% to 35% inhibition at 250 micromolar) |
| COC(=O)c1ccc(COC2C(O)C(COCc3ccccc3)OC(OC)C2NC(=O)CCNC(=N)N)cc1 (single isomer, unassigned) [Compound 14] | + (36% to 60% inhibition at 250 micromolar) | +++ (81% to 100% inhibition at 250 micromolar) | ++ (61% to 80% inhibition at 250 micromolar) |
| COC1OC(COCc2ccc(Br)cc2)C(O)C(OCc2ccc(C(=O)O)cc2)C1NC(=O)CCNC(=N)N (single isomer, unassigned) [Compound 15] | + (36% to 60% inhibition at 250 micromolar) | +++ (81% to 100% inhibition at 250 micromolar) | ++ (61% to 80% inhibition at 250 micromolar) |
| COC1OC(COCc2ccc(Br)cc2)C(O)C(OCc2ccc(C(=O)O)cc2)C1NC(=O)CCNC(=N)N (single isomer, unassigned) [Compound 16] | + (36% to 60% inhibition at 250 micromolar) | +++ (81% to 100% inhibition at 250 micromolar) | ++ (61% to 80% inhibition at 250 micromolar) |
| COC(=O)c1ccc(COC2C(O)C(COCc3ccc(Br)cc3)OC(OC)C2NC(=O)CCNC(=N)N)cc1 (single isomer, unassigned) [Compound 17] | + (36% to 60% inhibition at 250 micromolar) | +++ (81% to 100% inhibition at 250 micromolar) | +++ (81% to 100% inhibition at 250 micromolar) |
| COC1OC(COCc2cccc(N)c2)C(O)C(OCc2ccc(C(=O)O)cc2)C1NC(=O)c1ccccc1 (single isomer, unassigned) [Compound 18] | ++ (61% to 80% inhibition at 250 micromolar) | +++ (81% to 100% inhibition at 250 micromolar) | +++ (81% to 100% inhibition at 250 micromolar) |
| COC1OC(COCc2cccc(N)c2)C(O)C(OCc2ccc(C(=O)O)cc2)C1NC(=O)c1ccccc1 (single isomer, unassigned) [Compound 19] | ++ (61% to 80% inhibition at 250 micromolar) | +++ (81% to 100% inhibition at 250 micromolar) | +++ (81% to 100% inhibition at 250 micromolar) |
| COC1OC(COCc2ccccc2)C(O)C(OCc2cccc(N)c2)C1NC(=O)CCC(=O)O (single isomer, unassigned) [Compound 20] | +++ (81% to 100% inhibition at 250 micromolar) | +++ (81% to 100% inhibition at 250 micromolar) | +++ (81% to 100% inhibition at 250 micromolar) |
| COC1OC(COCc2ccccc2)C(O)C(OCc2cccc(N)c2)C1NC(=O)CCC(=O)O (single isomer, unassigned) [Compound 21] | +++ (81% to 100% inhibition at 250 micromolar) |  | +++ (81% to 100% inhibition at 250 micromolar) |
| Nc1cccc(COC2C(O)C(COCc3ccccc3)OC(O)C2NC(=O)CCC(=O)O)c1 (single isomer, unassigned) [Compound 22] | + (36% to 60% inhibition at 250 micromolar) | + (36% to 60% inhibition at 250 micromolar) | + (36% to 60% inhibition at 250 micromolar) |
| Nc1cccc(COC2C(O)C(COCc3ccccc3)OC(O)C2NC(=O)CCC(=O)O)c1 (single isomer, unassigned) [Compound 23] | ++ (61% to 80% inhibition at 250 micromolar) | +++ (81% to 100% inhibition at 250 micromolar) | − (0% to 35% inhibition at 250 micromolar) |
| COC1OC(COCc2ccc(Br)cc2)C(O)C(OCc2cccc(N)c2)C1NC(=O)CCC(=O)O (single isomer, unassigned) [Compound 24] | + (36% to 60% inhibition at 250 micromolar) | +++ (81% to 100% inhibition at 250 micromolar) | ++ (61% to 80% inhibition at 250 micromolar) |
